# Source: US9695155B2, “Herbicidal substituted pyrimidinyloxy benzene compounds” (E. I. DU PONT DE NEMOURS AND COMPANY, priority 2013, dated 2017)
# Legend:
# barnyardgrass [1] = assay: Test A preemergence; type: in vivo, Echinochloa crus-galli
# Method in brief: (§1)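 Visual 0–100 rating (100 = complete control) taken about 10 d post-treatment relative to untreated checks. Preemergence: directed soil spray on sown loam/sand pots. Postemergence: seedlings 2–10 cm, 1–2 leaf. Non-phytotoxic solvent formulation with surfactant.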
# kochia [2] = assay: Test A preemergence; type: in vivo, Kochia scoparia
# Method in brief: as §1
# ragweed [3] = assay: Test A preemergence; type: in vivo, Ambrosia elatior
# Method in brief: as §1
# Italian ryegrass [4] = assay: Test A preemergence; type: in vivo, Lolium multiflorum
# Method in brief: as §1
# giant foxtail [5] = assay: Test A preemergence; type: in vivo, Setaria faberii
# Method in brief: as §1
# pigweed [6] = assay: Test A preemergence; type: in vivo, Amaranthus retroflexus
# Method in brief: as §1
# barnyardgrass [7] = assay: Test A postemergence; type: in vivo, Echinochloa crus-galli
# Method in brief: as §1
# kochia [8] = assay: Test A postemergence; type: in vivo, Kochia scoparia
# Method in brief: as §1
# ragweed [9] = assay: Test A postemergence; type: in vivo, Ambrosia elatior
# Method in brief: as §1
# Italian ryegrass [10] = assay: Test A postemergence; type: in vivo, Lolium multiflorum
# Method in brief: as §1
# giant foxtail [11] = assay: Test A postemergence; type: in vivo, Setaria faberii
# Method in brief: as §1
# pigweed [12] = assay: Test A postemergence; type: in vivo, Amaranthus retroflexus
# Method in brief: as §1
# wheat = assay: Test A postemergence; type: in vivo, Triticum aestivum
# Method in brief: as §1
# corn = assay: Test A postemergence; type: in vivo, Zea mays
# Method in brief: as §1
# blackgrass = assay: Test A postemergence; type: in vivo, Alopecurus myosuroides
# Method in brief: as §1
# galium = assay: Test A postemergence; type: in vivo, Galium aparine
# Method in brief: as §1
# rice = assay: Test B flooded paddy test; type: in vivo, Oryza sativa; details: Flood, 250 g ai/ha; 0 to 100 scale where 0 is no effect and 100 is complete control
# Method in brief: (§2)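 Post-emergence paddy-water application at the 2-leaf stage, with 3 cm flood kept for the whole test. Response was judged visually relative to controls after 13 to 15 greenhouse days, 0 indicating no effect and 100 complete control.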
# sedge, umbrella = assay: Test B flooded paddy test; type: in vivo, Cyperus difformis; details: Flood, 250 g ai/ha; 0 to 100 scale where 0 is no effect and 100 is complete control
# Method in brief: as §2
# Heteranthera limosa = assay: Test B flooded paddy test; type: in vivo; details: Flood, 250 g ai/ha; 0 to 100 scale where 0 is no effect and 100 is complete control
# Method in brief: as §2
# barnyardgrass [13] = assay: Test B flooded paddy test; type: in vivo, Echinochloa crus-galli; details: Flood, 250 g ai/ha; 0 to 100 scale where 0 is no effect and 100 is complete control
# Method in brief: as §2
# [14] = 31 g ai/ha, 0 to 100 scale where 0 is no effect and 100 is complete control, visual, approximately 10 days
# [15] = 31 g ai/ha, 0 to 100 scale, 0 no effect, 100 complete control
# [16] = 125 g ai/ha, 0 to 100 scale, 0 no effect, 100 complete control
# [17] = 125 g ai/ha, 0 to 100 scale where 0 is no effect and 100 is complete control
# [18] = 500 g ai/ha, 0 to 100 scale where 0 is no effect and 100 is complete control
compound,measurement,setting,value
FC(F)(F)Sc1cnn(-c2ccccc2Oc2ncc(Br)cn2)c1 [Compound 246],"Plant response rating, Barnyardgrass",barnyardgrass [1]; [14],0
same,"Barnyardgrass plant response rating (0 to 100 scale, 0 is no effect, 100 is complete control)",barnyardgrass [1]; 125 g ai/ha,30
same,"Plant response rating, Kochia",kochia [2]; [14],0
same,Kochia plant response rating (0 to 100 scale),kochia [2]; 125 g ai/ha,0
same,"Plant response rating, Ragweed",ragweed [3]; [14],0
same,Ragweed plant response rating (0 to 100 scale),ragweed [3]; 125 g ai/ha,0
same,"Plant response rating, Ryegrass, Italian",Italian ryegrass [4]; [14],0
same,"Ryegrass, Italian plant response rating (0 to 100 scale)",Italian ryegrass [4]; 125 g ai/ha,0
same,"Plant response rating, Foxtail, Giant",giant foxtail [5]; [14],0
same,"Foxtail, Giant plant response rating (0 to 100 scale)",giant foxtail [5]; 125 g ai/ha,70
same,"Plant response rating, Pigweed",pigweed [6]; [14],0
same,Pigweed plant response rating (0 to 100 scale),pigweed [6]; 125 g ai/ha,20
same,"Plant response rating, Barnyardgrass",barnyardgrass [7]; [15],0
same,"Plant response rating, Barnyardgrass",barnyardgrass [7]; [16],0
same,"Plant response rating, Kochia",kochia [8]; [15],20
same,"Plant response rating, Kochia",kochia [8]; [16],70
same,"Plant response rating, Ragweed",ragweed [9]; [15],0
same,"Plant response rating, Ragweed",ragweed [9]; [16],0
same,"Plant response rating, Ryegrass, Italian",Italian ryegrass [10]; [15],0
same,"Plant response rating, Ryegrass, Italian",Italian ryegrass [10]; [16],0
same,"Plant response rating, Foxtail, Giant",giant foxtail [11]; [15],0
same,"Plant response rating, Foxtail, Giant",giant foxtail [11]; [16],0
same,"Plant response rating, Pigweed",pigweed [12]; [15],20
same,"Plant response rating, Pigweed",pigweed [12]; [16],40
same,"Plant response rating, Wheat",wheat; [15],0
same,"Plant response rating, Wheat",wheat; [16],0
same,"Plant response rating, Corn",corn; [15],0
same,"Plant response rating, Corn",corn; [16],20
same,"Plant response rating, Blackgrass",blackgrass; [15],0
same,"Plant response rating, Blackgrass",blackgrass; [16],0
same,"Plant response rating, Galium",galium; [15],20
same,"Plant response rating, Galium",galium; [16],70
same,"Plant response rating, Rice",rice,0
same,"Plant response rating, Sedge, Umbrella","sedge, umbrella",0
same,"Plant response rating, Ducksalad",Heteranthera limosa,0
same,"Plant response rating, Barnyardgrass",barnyardgrass [13],0
CC(F)c1cccc(Oc2ncc(Cl)cn2)c1-n1cc(Br)cn1 (stereo not drawn) [Compound 146],"Plant response rating, Barnyardgrass",barnyardgrass [1]; [17],20
same,Barnyardgrass plant response rating,barnyardgrass [1]; [18],90
same,"Plant response rating, Kochia",kochia [2]; [17],40
same,Kochia plant response rating,kochia [2]; [18],100
same,"Plant response rating, Ragweed",ragweed [3]; [17],0
same,Ragweed plant response rating,ragweed [3]; [18],100
same,"Plant response rating, Ryegrass, Italian",Italian ryegrass [4]; [17],0
same,"Ryegrass, Italian plant response rating",Italian ryegrass [4]; [18],50
same,"Plant response rating, Foxtail, Giant",giant foxtail [5]; [17],70
same,"Foxtail, Giant plant response rating",giant foxtail [5]; [18],100
same,"Plant response rating, Pigweed",pigweed [6]; [17],60
same,Pigweed plant response rating,pigweed [6]; [18],100
same,Barnyardgrass plant response rating,barnyardgrass [7]; [17],10
same,"Plant response rating, Barnyardgrass",barnyardgrass [7]; [18],60
same,Kochia plant response rating,kochia [8]; [17],70
same,"Plant response rating, Kochia",kochia [8]; [18],100
same,Ragweed plant response rating,ragweed [9]; [17],10
same,"Plant response rating, Ragweed",ragweed [9]; [18],10
same,"Ryegrass, Italian plant response rating",Italian ryegrass [10]; [17],0
same,"Plant response rating, Ryegrass, Italian",Italian ryegrass [10]; [18],40
same,"Foxtail, Giant plant response rating",giant foxtail [11]; [17],20
same,"Plant response rating, Foxtail, Giant",giant foxtail [11]; [18],80
same,Pigweed plant response rating,pigweed [12]; [17],100
same,"Plant response rating, Pigweed",pigweed [12]; [18],100
same,Wheat plant response rating,wheat; [17],0
same,"Plant response rating, Wheat",wheat; [18],0
same,Corn plant response rating,corn; [17],10
same,"Plant response rating, Corn",corn; [18],30
same,Blackgrass plant response rating,blackgrass; [17],20
same,"Plant response rating, Blackgrass",blackgrass; [18],70
same,Galium plant response rating,galium; [17],50
same,"Plant response rating, Galium",galium; [18],100
same,"Plant response rating, Rice",rice,0
same,"Plant response rating, Sedge, Umbrella","sedge, umbrella",40
same,"Plant response rating, Ducksalad",Heteranthera limosa,40
same,"Plant response rating, Barnyardgrass",barnyardgrass [13],20
FC(F)Oc1cnn(-c2c(Br)cccc2Oc2ncc(Cl)cn2)c1 [Compound 122],Barnyardgrass plant response rating (0 to 100 scale),barnyardgrass [1]; 31 g ai/ha,10
same,"Plant response rating, Barnyardgrass",barnyardgrass [1]; [17],70
same,Kochia plant response rating (0 to 100 scale),kochia [2]; 31 g ai/ha,20
same,"Plant response rating, Kochia",kochia [2]; [17],100
same,Ragweed plant response rating (0 to 100 scale),ragweed [3]; 31 g ai/ha,0
same,"Plant response rating, Ragweed",ragweed [3]; [17],0
same,"Ryegrass, Italian plant response rating (0 to 100 scale)",Italian ryegrass [4]; 31 g ai/ha,0
same,"Plant response rating, Ryegrass, Italian",Italian ryegrass [4]; [17],0
same,"Foxtail, Giant plant response rating (0 to 100 scale)",giant foxtail [5]; 31 g ai/ha,50
same,"Plant response rating, Foxtail, Giant",giant foxtail [5]; [17],100
same,Pigweed plant response rating (0 to 100 scale),pigweed [6]; 31 g ai/ha,80
same,"Plant response rating, Pigweed",pigweed [6]; [17],100
same,"Plant response rating, Barnyardgrass",barnyardgrass [7]; [15],10
same,Barnyardgrass plant response rating,barnyardgrass [7]; [17],40
same,"Plant response rating, Kochia",kochia [8]; [15],50
same,Kochia plant response rating,kochia [8]; [17],90
same,"Plant response rating, Ragweed",ragweed [9]; [15],10
same,Ragweed plant response rating,ragweed [9]; [17],30
same,"Plant response rating, Ryegrass, Italian",Italian ryegrass [10]; [15],0
same,"Ryegrass, Italian plant response rating",Italian ryegrass [10]; [17],20
same,"Plant response rating, Foxtail, Giant",giant foxtail [11]; [15],10
same,"Foxtail, Giant plant response rating",giant foxtail [11]; [17],60
same,"Plant response rating, Pigweed",pigweed [12]; [15],70
same,Pigweed plant response rating,pigweed [12]; [17],100
same,"Plant response rating, Wheat",wheat; [15],0
same,Wheat plant response rating,wheat; [17],10
same,"Plant response rating, Corn",corn; [15],10
same,Corn plant response rating,corn; [17],30
same,"Plant response rating, Blackgrass",blackgrass; [15],30
same,Blackgrass plant response rating,blackgrass; [17],80
same,"Plant response rating, Galium",galium; [15],20
same,Galium plant response rating,galium; [17],40
same,"Plant response rating, Rice",rice,0
same,"Plant response rating, Sedge, Umbrella","sedge, umbrella",75
same,"Plant response rating, Ducksalad",Heteranthera limosa,80
same,"Plant response rating, Barnyardgrass",barnyardgrass [13],0
